Test: xn = mol fraction of the nth substance listed
Conditions: Gas, Vibrating tube method

S [hydrogen sulfide] + C
Conditions | mass density [kg/m3]
273.16 K, 19608 kPa, x2 = 0.714 | 336.94
273.16 K, 22152 kPa, x2 = 0.714 | 354.18
273.16 K, 22483 kPa, x2 = 0.714 | 356.27
273.17 K, 12519 kPa, x2 = 0.8197 | 177.81
273.18 K, 22828 kPa, x2 = 0.714 | 358.14
273.19 K, 21199 kPa, x2 = 0.714 | 347.78
273.19 K, 24981 kPa, x2 = 0.714 | 368.95
273.2 K, 20623 kPa, x2 = 0.714 | 344.02
273.2 K, 23590 kPa, x2 = 0.714 | 362.19
273.21 K, 209 kPa, x2 = 0.8685 | 1.7
273.21 K, 648 kPa, x2 = 0.8685 | 5.39
273.21 K, 21506 kPa, x2 = 0.714 | 349.84
273.22 K, 26410 kPa, x2 = 0.714 | 375.25
273.23 K, 20100 kPa, x2 = 0.714 | 340.42
273.23 K, 25533 kPa, x2 = 0.714 | 371.48
273.24 K, 1167 kPa, x2 = 0.8685 | 10
273.24 K, 1761 kPa, x2 = 0.8685 | 15.44
273.24 K, 27020 kPa, x2 = 0.714 | 377.85
273.25 K, 2240 kPa, x2 = 0.8685 | 19.97
273.25 K, 3776 kPa, x2 = 0.8685 | 35.41
273.25 K, 11361 kPa, x2 = 0.8685 | 140.37
273.25 K, 24591 kPa, x2 = 0.714 | 367.01
273.25 K, 26031 kPa, x2 = 0.714 | 373.67
273.25 K, 30481 kPa, x2 = 0.8685 | 300.13
273.26 K, 2770 kPa, x2 = 0.8685 | 25.12
273.26 K, 4666 kPa, x2 = 0.8685 | 45.13
273.26 K, 5086 kPa, x2 = 0.8685 | 49.93
273.26 K, 11062 kPa, x2 = 0.8685 | 135.65
273.26 K, 11726 kPa, x2 = 0.8685 | 146.08
273.26 K, 12002 kPa, x2 = 0.8685 | 150.33
273.26 K, 12322 kPa, x2 = 0.8685 | 155.19
273.26 K, 12637 kPa, x2 = 0.8685 | 159.86
273.26 K, 13040 kPa, x2 = 0.8685 | 165.72
273.26 K, 27255 kPa, x2 = 0.8685 | 285.03
273.26 K, 28276 kPa, x2 = 0.8685 | 290.05
273.26 K, 29372 kPa, x2 = 0.8685 | 295.19
273.27 K, 3280 kPa, x2 = 0.8685 | 30.25
273.27 K, 4207 kPa, x2 = 0.8685 | 40.03
273.27 K, 4225 kPa, x2 = 0.8685 | 40.23
273.27 K, 9149 kPa, x2 = 0.8685 | 105.29
273.27 K, 9851 kPa, x2 = 0.8685 | 116.33
273.27 K, 13466 kPa, x2 = 0.8685 | 171.7
273.27 K, 13771 kPa, x2 = 0.8685 | 175.85
273.27 K, 24569 kPa, x2 = 0.8685 | 270.52
273.27 K, 25361 kPa, x2 = 0.8685 | 275.02
273.27 K, 26319 kPa, x2 = 0.8685 | 280.21
273.28 K, 5512 kPa, x2 = 0.8685 | 54.98
273.28 K, 5933 kPa, x2 = 0.8685 | 60.12
273.28 K, 8496 kPa, x2 = 0.8685 | 95.31
273.28 K, 9596 kPa, x2 = 0.8685 | 112.28
273.28 K, 10137 kPa, x2 = 0.8685 | 120.88
273.29 K, 8136 kPa, x2 = 0.8685 | 89.96
273.29 K, 8809 kPa, x2 = 0.8685 | 100.05
273.29 K, 10446 kPa, x2 = 0.8685 | 125.82
273.29 K, 10749 kPa, x2 = 0.8685 | 130.66
273.29 K, 23690 kPa, x2 = 0.8685 | 265.29
273.3 K, 6333 kPa, x2 = 0.8685 | 65.17
273.3 K, 14847 kPa, x2 = 0.8685 | 189.62
273.31 K, 6712 kPa, x2 = 0.8685 | 70.1
273.31 K, 7200 kPa, x2 = 0.8685 | 76.68
273.31 K, 7483 kPa, x2 = 0.8685 | 80.6
273.31 K, 7817 kPa, x2 = 0.8685 | 85.33
273.31 K, 15329 kPa, x2 = 0.8685 | 195.37
273.31 K, 22905 kPa, x2 = 0.8685 | 260.37
273.32 K, 15811 kPa, x2 = 0.8685 | 200.85

Reference: the NIST ThermoML archive (doi:10.1016/j.fluid.2016.08.002)
